Assays:
goosegrass = assay: Test D goosegrass; format: in vivo, Eleusine indica; conditions: Preemergence, 0 to 100 scale
Summary of the method: (§1)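 Visual injury ratings, 0 = no injury to 100 = complete control, taken 14 to 21 days after treatment. Test chemicals were in a surfactant-containing non-phytotoxic solvent; preemergence treatments went onto the sandy loam surface of seeded greenhouse pots within one day of sowing.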

wild oat = assay: Test B pre/postemergence wild oat; format: in vivo, Avena fatua
Summary of the method: (§2)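 Response is a visual 0-to-10 score relative to untreated plants, where 0 means no effect and 10 means complete control, taken twelve to sixteen days after application. Treatments went onto soil at planting and onto foliage of 1- to 4-leaf plants, using a surfactant-containing non-phytotoxic solvent.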

sandbur = assay: Test D sandbur; format: in vivo, Cenchrus echinatus; conditions: Preemergence, 0 to 100 scale
Summary of the method: as §1

tall mallow = assay: Test D tall mallow; format: in vivo, Malva sylvestris; conditions: Preemergence, 0 to 100 scale
Summary of the method: as §1

Johnson grass = assay: Test D Johnson grass; format: in vivo, Sorghum halepense; conditions: Preemergence, 0 to 100 scale
Summary of the method: as §1

bamyardgrass = assay: Test B flood test barnyardgrass; format: in vivo, Echinochloa crus-galli
Summary of the method: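 Read-out is a visual response score from 0 (no effect) to 10 (complete control), assigned by comparison with untreated controls. Treatment was applied at the 2-leaf stage, and plants stayed in the greenhouse for twelve to sixteen days before scoring.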

surinam grass = assay: Test B pre/postemergence surinam grass; format: in vivo, Brachiaria decumbens
Summary of the method: as §2

bedstraw = assay: Test B pre/postemergence bedstraw; format: in vivo, Galium aparine
Summary of the method: as §2

[1] = Rate 16 g/ha, 0 no injury, 100 complete control
[2] = Rate 32 g/ha, 0 no injury, 100 complete control
[3] = Rate 64 g/ha, 0 no injury, 100 complete control
[4] = Rate 125 g/ha, 0 no injury, 100 complete control
[5] = Postemergence, Rate 62 g/ha, scale 0 to 10, 0 is no effect, 10 is complete control
[6] = Postemergence, Rate 250 g/ha, scale 0 to 10, 0 no effect, 10 complete control
[7] = Preemergence, Rate 62 g/ha, scale 0 to 10 (0 no effect, 10 complete control)
[8] = Preemergence, Rate 125 g/ha, scale 0 to 10 (0 no effect, 10 complete control)
[9] = Preemergence, Rate 250 g/ha, scale of 0 to 10 where 0 is no effect and 10 is complete control
[10] = Preemergence, Rate 500 g/ha, scale 0 (no effect) to 10 (complete control)
[11] = Rate 125 g/ha, Postemergence, scale 0 to 10, 0 no effect, 10 complete control
[12] = Rate 500 g/ha, Postemergence, scale 0 to 10, 0 no effect, 10 complete control

CC(C)N(C(=O)n1oc(=O)n(Cc2ccccc2)c1=O)c1ccc(F)cc1 [Compound 78]
6: Plant response rating, Wild oats (wild oat; [9]) | Wild oats plant response rating (wild oat; [10]) | B. signalgrass plant response rating (surinam grass; Rate 500 g/ha, Postemergence, scale of 0 to 10 where 0 is no effect and 10 is complete control)
20: Plant response rating, Johnsongrass (Johnson grass; Rate 250 g/ha) | Plant response rating, Johnsongrass (Johnson grass; Rate 500 g/ha)
9: B. signalgrass plant response rating (surinam grass; [10])
0: Wild oats plant response rating (wild oat; [5]) | Wild oats plant response rating (wild oat; [6]) | Wild oats plant response rating (wild oat; [7]) | Wild oats plant response rating (wild oat; [11]) | Plant response rating, Sandbur (sandbur; [1]) | Plant response rating, Sandbur (sandbur; [2]) | Sandbur plant response rating (sandbur; [3]) | Sandbur plant response rating (sandbur; [4]) | Plant response rating, Tall Mallow (tall mallow; [1]) | Plant response rating, Tall Mallow (tall mallow; [2]) | Tall Mallow plant response rating (tall mallow; [3]) | Tall Mallow plant response rating (tall mallow; [4]) | Plant response rating, Tall Mallow (tall mallow; Rate 250 g/ha) | Plant response rating, Tall Mallow (tall mallow; Rate 500 g/ha) | Plant response rating, Johnsongrass (Johnson grass; [1]) | Plant response rating, Johnsongrass (Johnson grass; [2]) | Plant response rating, Johnsongrass (Johnson grass; [3]) | Plant response rating, Johnsongrass (Johnson grass; [4]) | Barnyardgrass plant response rating (bamyardgrass; [5]) | Barnyardgrass plant response rating (bamyardgrass; Rate 125 g/ha, Postemergence section (flood test species), scale 0 to 10, 0 no effect, 10 complete control) | Barnyardgrass plant response rating (bamyardgrass; Rate 250 g/ha, headed Pre-emergence (flood test species), scale 0 to 10 (0 no effect, 10 complete control)) | Plant response rating, Barnyardgrass (bamyardgrass; Rate 500 g/ha, headed Pre-emergence (flood test species), scale 0 to 10 (0 no effect, 10 complete control)) | Barnyardgrass plant response rating (bamyardgrass; Rate 1000 g/ha, Pre-emergence (as headed), scale 0 to 10) | B. signalgrass plant response rating (surinam grass; [5]) | B. signalgrass plant response rating (surinam grass; [7]) | B. signalgrass plant response rating (surinam grass; [11]) | Bedstraw plant response rating (bedstraw; [5]) | Bedstraw plant response rating (bedstraw; [7]) | Plant response rating, Bedstraw (bedstraw; [8]) | Plant response rating, Bedstraw (bedstraw; [9]) | Bedstraw plant response rating (bedstraw; [10]) | Bedstraw plant response rating (bedstraw; [11])
5: Plant response rating, B. signalgrass (surinam grass; [9])
10: Plant response rating, Goosegrass (goosegrass; [1]) | Plant response rating, Goosegrass (goosegrass; [2])
75: Plant response rating, Sandbur (sandbur; Rate 250 g/ha)
1: Plant response rating, B. signalgrass (surinam grass; [8])
3: Barnyardgrass plant response rating (bamyardgrass; Rate 2000 g/ha, Pre-emergence (as headed), scale 0 to 10, 0 no effect, 10 complete control) | Barnyardgrass plant response rating (bamyardgrass; flood test, listed under Postemergence, Rate 250 g/ha, scale 0 to 10, 0 no effect, 10 complete control)
4: B. signalgrass plant response rating (surinam grass; [6]) | Bedstraw plant response rating (bedstraw; [6])
100: Plant response rating, Goosegrass (goosegrass; Rate 500 g/ha)
7: Barnyardgrass plant response rating (bamyardgrass; Rate 500 g/ha, listed under Postemergence (flood test species), scale 0 to 10, 0 no effect, 10 complete control)
2: Plant response rating, Wild oats (wild oat; [8]) | Wild oats plant response rating (wild oat; [12])
98: Plant response rating, Goosegrass (goosegrass; [4]) | Plant response rating, Goosegrass (goosegrass; Rate 250 g/ha)
80: Plant response rating, Sandbur (sandbur; Rate 500 g/ha)
8: Bedstraw plant response rating (bedstraw; [12])
85: Plant response rating, Goosegrass (goosegrass; [3])

Source: patent US6737383B1, “Herbicidal oxadiazolidines” (priority 1999, dated 2004)
